Test results as given in publication PMC6979384, “Characterization of the plant homeodomain (PHD) reader family for their histone tail interactions” (Epigenetics & Chromatin, 2020).

Legend:
Assay in all cases: dCypher AlphaScreen Phase A (reader titration)
Type in all cases: binding, human
Conditions in all cases: 100 nM peptide, 23 °C, n = 2
[1] = system: CHD4 (PPCC)
Protocol: (§1) Fig. 3 dCypher histone peptide-binding assays define the PTM recognition preference of PHD proteins with high sensitivity. a–h Binding curves to determine optimal reader protein concentration for full peptide library screening on the dCypher® AlphaScreen® platform (see “Methods”). X-axes are log(protein concentration (M)) at constant peptide concentration (100 nM); Y-axes are AlphaScreen counts, representing relative strength of binding (n = 2; error bars are S.D.). i Heat map represents relative binding to H3 N-terminal peptides (left) by PHD-containing GST-tagged proteins (top) using the dCypher AlphaScreen platform. Protein concentrations can be found in Additional file 5: Table S4. Binding strength is indicated by color gradient from green to yellow (stronger to weaker). The asterisk (*) by MLL5 signifies its general preference for H3K4 methylation. Alpha counts (n = 2) were normalized individually for each protein to the highest signal for each respective assay. For full dCypher peptide screen data, see Additional file 4: Table S3
(§2) We next employed a highly sensitive proximity-based AlphaScreen histone peptide assay (dCypher®) to provide a third and orthogonal approach to analyzing the histone binding preferences for a subset of the 31 PHD proteins with respect to various histone tail PTMs. In this assay, biotinylated peptides are bound to streptavidin “donor” beads and the GST-tagged reader domains bound to Glutathione “acceptor” beads. […] Initial binding assays were conducted for each fusion protein using three peptides [H3 (1–20) with K4me0, H3K4me3 or H3K9me3] to determine the optimal reader domain concentration for full peptide library studies (Fig. 3a–h; Additional file 4: Table S3 and Additional file 5: Table S4). […]
(§3) The dCypher peptide screen assay was performed as previously described. […] Plates were incubated at 23 °C in subdued lighting for 60 min and AlphaLISA signal measured on a PerkinElmer 2104 EnVision (680 nm laser excitation, 570 nm emission filter ± 50 nm bandwidth). […]

[2] = system: PHRF1 (RP)
Protocol: as §1, §2, §3

[3] = system: TRIM66 (PB)
Protocol: as §1, §2, §3

H3K9me3: H3 1-20 [Peptide H3K9me3]
relative binding over a range of protein concentration [1]: stronger interaction with H3K9me3 compared with the unmodified peptide | binding preference at low versus high protein concentrations [2]: distinct binding preference for the H3K9me3 peptide over the H3K4me0 peptide | relative binding over a range of protein concentration [3]: stronger interaction with H3K9me3 compared with the unmodified peptide
